From patent publication US9006224B2, “Neuroendocrine tumor treatment” (Novartis AG, priority 2005, dated 2015)

Experiments:
Format in all cases: cell-based
A549 line = assay: Antiproliferative activity, methylene blue staining, A549 line
Protocol: (§1) Subsequently, a two-fold dilution series of each compound (an mTOR inhibitor other than Compound A or a known chemotherapeutic agent) is made in separate tubes (starting at 8× the IC50 of each compound) either alone or in paired combinations, and the dilutions are added to the wells.
(§2) The cells are then re-incubated for 3 days. Methylene blue staining is performed on day 4 and the amount of bound dye (proportional to the number of surviving cells that bind the dye) determined. IC50s are subsequently determined using the Calcusyn program, which provides a measure of the interaction, namely the so-called non-exclusive combination index (CI), where: CI˜1=the interaction is nearly additive; 0.85-0.9=slight synergism; <0.85=synergy.

KB-31 = assay: Antiproliferative activity, methylene blue staining, KB-31 line
Protocol: as §1, §2

HCT116 = assay: Antiproliferative activity, methylene blue staining, HCT116 line
Protocol: as §1, §2

[1] = tested on: A cell line, e.g. A549, KB-31 and HCT116 lines; assay: Antiproliferative activity in combination with other agents (Calcusyn combination index); conditions: e.g. with somastatin or a somastatin analogue, 3 days incubation, methylene blue staining
Protocol: as §1, §2

[2] = tested on: cells which are otherwise resistant to endocrine agent treatment; assay: In vitro studies: restoring activity of endocrine agents in resistant cells
Excerpt: Several studies have implicated aberrant activity of the Akt kinase as a significant mechanism by which breast cancer tumors are unresponsive to endocrine therapy.

CO[C@H]1C[C@@H]2CC[C@@H](C)[C@@](O)(O2)C(=O)C(=O)N2CCCC[C@H]2C(=O)O[C@H]([C@H](C)C[C@@H]2CC[C@@H](OCCO)[C@H](OC)C2)CC(=O)[C@H](C)/C=C(\C)[C@@H](O)[C@@H](OC)C(=O)[C@H](C)C[C@H](C)/C=C/C=C/C=C/1C [Compound A, 40-O-(2-hydroxyethyl)-rapamycin]
IC50 (A549 line): low nM range | IC50 (KB-31): micromolar range | IC50 (HCT116): micromolar range | antiproliferative activity in combination with another chemotherapeutic agent [1]: interesting antiproliferative activity | restoration of activity of endocrine agents (estrogen inhibitors and/or aromatase inhibitors) [2]: able to restore activity of endocrine agents
